For one assay, the system named is ATF4. The experiment in a line: ATF4 expression inhibition assay (thapsigargin-stressed HEK293T cells, western blot). The class given is cell-based. The following applies: Homo sapiens, HEK-293T; for inhibition at 0.1 µM: 3 h with 100 nM thapsigargin (Tg) and 100 nM test compound; for inhibition at 0.1 µM / inhibition at 1 µM: Tg alone 0%, untreated 100%; for inhibition at 1 µM: 3 h with 100 nM thapsigargin (Tg) and 1 μM test compound; for IC50: 3 h with 100 nM Tg, test compound 1 nM to 1 μM. Here is the method:
HEK293T cells were maintained at 37° C. and 5% CO2 in Dulbecco's Modified Eagle's Media (DMEM) supplemented with 10% fetal bovine serum (FBS), 2 mM L-glutamine, 100 U/ml penicillin, and 100 μg/ml streptomycin. […] Cells without treatment or cells treated with Tg alone were used as controls.
After 3 hours of treatment with Tg and the test compound, cells were lysed with SDS-PAGE lysis buffer. Lysates were transferred to 1.5 ml tubes and sonicated for 3 min, and total protein amounts were quantified using BCA Protein Assay Kit (Pierce). Equal amount of proteins were loaded on SDS-PAGE gels. Proteins were transferred onto 0.2 μm PVDF membranes (BioRad) and probed with primary antibodies diluted in Tris-buffered saline supplemented with 0.1% Tween 20 and 3% bovine serum albumin.
ATF4 (11815) antibody was used as primary antibody (Cell Signaling Technologies). A horseradish peroxidase (HRP)-conjugated secondary antibody (Rockland) was employed to detect immune-reactive bands using enhanced chemiluminescence (ECL Western Blotting Substrate, Pierce). Quantification of protein bands was done by densitometry using ImageJ.
Percentages of ATF4 inhibition after induction with Tg in the presence of 100 nM or 1 μM of certain test compounds are shown in Table 2 and FIG. 1. Percentage of ATF4 inhibition was calculated as the percent reduction normalized to Tg treatment (0% inhibition) and untreated cells (100% inhibition). Also shown in Table 2 is the calculated IC50 for the test compounds. […] Accordingly, inhibition of ATF4 expression as a result of the test compound indicates suppression of the ISR pathway.
For orientation: Immunoblotting shows a protein as a band on a membrane.

In another assay the test system is CHO cells. The experiment in a line: Protein translation assay (puromycin incorporation in CHO cells, unstressed or Tg-stressed). The class given is cell-based, Chinese hamster. As to conditions: Cricetulus griseus, media alone 100%; for activity at 0.1 µM: read-out: % Recovery of protein expression (100 nM test compound). On the procedure:
CHO cells were maintained at 37° C. and 5% CO2 in DMEM supplemented with 10% fetal bovine serum (FBS), 2 mM L-glutamine, 100 U/ml penicillin, and 100 μg/ml streptomycin. After reaching 80% of confluence, cells were detached and seeded on 6 well plates in complete media, allowed to recover overnight and treated for 2 hours with 1 μM of the test compound (to assess protein synthesis levels in unstressed condition), or for 1 hour with 100 nM and 1 μM of the test compound and then co-treated with 300 nM Tg and 100 nM and 1 μM of the test compound (to assess the recovery of protein synthesis in a stressed condition). Cells treated with Tg alone were used as controls.
After the 2 hours treatments, media were replaced by adding 10 μg/ml puromycin (Sigma Aldrich) in complete media for 30 min. Media were removed and cells were lysed with SDS-PAGE lysis buffer. Lysates were transferred to 1.5 ml tubes and sonicated for 3 minutes and total protein amount were quantified using BCA Protein Assay Kit (Pierce). Equal amount of protein (30 μg) was loaded on SDS-PAGE gels. Proteins were transferred onto 0.2 μm PVDF membranes (BioRad) and probed with primary antibodies diluted in Tris-buffered saline supplemented with 0.1% Tween 20 and 3% bovine serum albumin.
Puromycin (12D10) antibody was used as primary antibody (Merck Millipore). A HRP-conjugated secondary antibody (Rockland) was employed to detect immune-reactive bands using enhanced chemiluminescence (ECL Western Blotting Substrate, Pierce). Quantification of protein bands was done by densitometry using ImageJ.
Percent increase of protein synthesis in unstressed cells (without Tg treatment) in the presence of media alone or certain test compounds is shown in Table 3 and FIG. 2. The percentage levels were normalized to the media alone condition, which correspond to 100% protein synthesis.
Percent recovery of protein synthesis in stressed cells (with Tg treatment) due to the test compounds at 100 nM or 1 μM is shown in FIGS. 3A and 3B, respectively, and in Table 3. The levels were normalized to the media alone and to Tg alone conditions, which correspond to 100% and 0% respectively.

Where [1] appears, read: CHO cells stressed with 300 nM Tg, Tg alone 0%.
The mark [2] stands for this setting: CHO cells stressed with 300 nM Tg, Tg alone 0%, read-out: % Recovery of protein expression (1 μM test compound).
Setting [3] is: unstressed CHO cells, 2 h, read-out: % Protein expression relative to untreated (1 μM test compound).

Where two headings read alike, the source gives them in different places. Some results are limits rather than exact numbers.

One may read the inhibition as how much of the control response was suppressed. Read a high inhibition as a response far below the control. In the assay on ATF4, `O=C(COc1ccc(Cl)c(F)c1)N[C@H]1CC[C@H](NCC(O)COc2ccc(Cl)cc2)CC1` (stereo partly drawn) [Compound 10, trans-2-(4-chloro-3-fluorophenoxy)-N-(4-((3-(4-chlorophenoxy)-2-hydroxypropyl)amino)cyclohexyl)acetamide] gave an inhibition at 0.1 µM of 0% and an inhibition at 1 µM of 11%. Besides, in the assay with CHO cells (setting [1]), the activity at 0.1 µM came to 30.6%. The activity at 1 µM with CHO cells (setting [2]) was found to be 127%.

As a reminder, the IC50 is the concentration that inhibits the measured activity by half. A lower IC50 goes with greater potency. Regarding `O=C(COc1ccc(Cl)cc1)N[C@H]1CC[C@H](N2CC(COc3ccc(Cl)cc3)OC2=O)CC1` (stereo partly drawn) [Compound 159, trans-2-(4-chlorophenoxy)-N-(4-(5-((4-chlorophenoxy)methyl)-2-oxooxazolidin-3-yl)cyclohexyl)acetamide], in the assay on ATF4, the IC50 is below 100 nM, the inhibition at 0.1 µM came to 52% and the inhibition at 1 µM was 84%. Besides, the activity at 0.1 µM in the assay on CHO cells (setting [1]) worked out at 23.9%. Moreover, the activity at 1 µM in the assay with CHO cells (setting [2]) came to 79.4%.

`O=C(COc1ccc(Cl)c(F)c1)N[C@@H]1CCCN(CC(O)COc2ccc(Cl)c(F)c2)C1` (stereo partly drawn) [Compound 12, 2-(4-chloro-3-fluorophenoxy)-N-((3R)-1-(3-(4-chloro-3-fluorophenoxy)-2-hydroxypropyl)piperidin-3-yl)acetamide]: in the assay on ATF4, at 0.1 µM the inhibition was 0% and at 1 µM the inhibition was 0%.

With `O=C(NC1CCN(CC(O)COc2ccc(Cl)c(F)c2)CC1)c1ccc2cc(Cl)ccc2c1` (centres unmarked) [Compound 21, 6-chloro-N-(1-(3-(4-chloro-3-fluorophenoxy)-2-hydroxypropyl)piperidin-4-yl)-2-naphthamide], in the assay with ATF4, the inhibition at 0.1 µM came to 54% and testing at 1 µM gave an inhibition of 78%. The activity at 0.1 µM in the assay with CHO cells (setting [1]) came to 70.5%. Further, the activity at 1 µM with CHO cells (setting [2]) came out at 182%.

Turning to `O=C(COc1ccc(Cl)cc1)NC1CCN(C[C@@H](O)COc2ccc(Cl)cc2)CC1` (single isomer, unassigned) [Compound 16, (+)-2-(4-chlorophenoxy)-N-(1-(3-(4-chlorophenoxy)-2-hydroxypropyl)piperidin-4-yl)acetamide], in the assay with ATF4, the inhibition at 0.1 µM is 0% and testing at 1 µM gave an inhibition of 38%.

In the assay with ATF4, `O=C(NC1CCN(CCCOc2ccc(Cl)c(F)c2)CC1)c1cc2cc(Cl)ccc2o1` [Compound 148, 5-chloro-N-(1-(3-(4-chloro-3-fluorophenoxy)propyl)piperidin-4-yl)benzofuran-2-carboxamide] displayed an inhibition at 0.1 µM of 30% and an inhibition at 1 µM of 90%. Also, the activity at 0.1 µM with CHO cells (setting [1]) came out at 37.2%. In addition, the activity at 1 µM in the assay on CHO cells (setting [2]) turned out to be 250%. Moreover, in the assay with CHO cells (setting [3]), the activity at 1 µM was 123%.

For `CC1(C)CC(NC(=O)COc2ccc(Cl)c(F)c2)CC(C)(C)N1CC(O)COc1ccc(Cl)c(F)c1` (centres unmarked) [Compound 25, 2-(4-chloro-3-fluorophenoxy)-N-(1-(3-(4-chloro-3-fluorophenoxy)-2-hydroxypropyl)-2,2,6,6-tetramethylpiperidin-4-yl)acetamide], in the assay on ATF4, the inhibition at 0.1 µM is 0% and the inhibition at 1 µM was determined as 0%. Also, the activity at 0.1 µM in the assay with CHO cells (setting [1]) turned out to be 11.4%. Further, the activity at 1 µM with CHO cells (setting [2]) turned out to be 22.9%.

With `O=C(COc1ccc(Cl)cc1)N[C@H]1CC[C@H](NC(=O)[C@@H]2CNc3cc(Cl)ccc3O2)CC1` (single isomer, unassigned) [Compound 158, (+)-trans-6-chloro-N-(4-(2-(4-chlorophenoxy)acetamido)cyclohexyl)-3,4-dihydro-2H-benzo[b][1,4]oxazine-2-carboxamide], in the assay on ATF4, inhibition was half-maximal at 9.1 nM (IC50), the inhibition at 0.1 µM is 96% and the inhibition at 1 µM came to 96%. In addition, in the assay on CHO cells (setting [1]), the activity at 0.1 µM is 86.8%. Also, the activity at 1 µM in the assay on CHO cells (setting [2]) is 199%. Further, the activity at 1 µM in the assay on CHO cells (setting [3]) was determined as 168%.

On to `O=C(COc1ccc(Cl)c(F)c1)N[C@H]1CC[C@H](NC(=O)c2cc3cc(Cl)ccc3o2)CC1` [Compound 17, trans-5-chloro-N-(4-(2-(4-chloro-3-fluorophenoxy)acetamido)cyclohexyl)benzofuran-2-carboxamide], for which, in the assay on ATF4, it took 9.52 nM to reach half-maximal inhibition (IC50), at 0.1 µM the inhibition was 95% and the inhibition at 1 µM was found to be 98%. Also, in the assay with CHO cells (setting [1]), the activity at 0.1 µM came out at 87%. Also, in the assay with CHO cells (setting [2]), the activity at 1 µM worked out at 172%. Further, the activity at 1 µM in the assay on CHO cells (setting [3]) is 93.2%.

In the assay on ATF4, `O=C(COc1ccc(Cl)c(F)c1)N[C@H]1CC[C@H](NC(=O)c2cc3ccncc3o2)CC1` [Compound 24, trans-N-(4-(2-(4-chloro-3-fluorophenoxy)acetamido)cyclohexyl)furo[2,3-c]pyridine-2-carboxamide] had an inhibition at 0.1 µM of 18% and an inhibition at 1 µM of 54%. For the same compound, the activity at 0.1 µM in the assay with CHO cells (setting [1]) turned out to be 11.8%. For the same compound, the activity at 1 µM with CHO cells (setting [2]) amounted to 24.3%.

In the assay on ATF4, `O=C(COc1ccc(Cl)c(F)c1)N[C@H]1CC[C@H](NC[C@H](O)COc2ccc(Cl)c(F)c2)CC1` (single isomer, unassigned) [Compound 7, (−)-2-(4-chloro-3-fluorophenoxy)-N-(4-((3-(4-chloro-3-fluorophenoxy)-2-hydroxypropyl)amino)cyclohexyl)acetamide] registered an inhibition at 0.1 µM of 0% and an inhibition at 1 µM of 0%.

With `O=C(COc1ccc(Cl)c(F)c1)N[C@H]1CC[C@H](NC(=O)C(O)COc2ccc(Cl)c(F)c2)CC1` (stereo partly drawn) [Compound 9, trans-3-(4-chloro-3-fluorophenoxy)-N-(4-(2-(4-chloro-3-fluorophenoxy)acetamido)cyclohexyl)-2-hydroxypropanamide], in the assay with ATF4, 0.1 µM produced 12% inhibition and 1 µM produced 20% inhibition.

With `O=C(COc1ccc(Cl)cc1)N[C@H]1CC[C@H](NC[C@H](O)COc2ccc(Cl)cc2)CC1` (single isomer, unassigned) [Compound 4, (−)-2-(4-chlorophenoxy)-N-(4-((3-(4-chlorophenoxy)-2-hydroxypropyl)amino)cyclohexyl)acetamide], in the assay on ATF4, testing at 0.1 µM gave an inhibition of 31% and testing at 1 µM gave an inhibition of 54%.

Consider `O=C(COc1ccc(Cl)c(F)c1)N[C@H]1CCCN(CC(O)COc2ccc(Cl)c(F)c2)C1` (stereo partly drawn) [Compound 11, 2-(4-chloro-3-fluorophenoxy)-N-((3S)-1-(3-(4-chloro-3-fluorophenoxy)-2-hydroxypropyl)piperidin-3-yl)acetamide], for which, in the assay on ATF4, at 0.1 µM the inhibition was 0% and the inhibition at 1 µM was 0%.

In the assay with ATF4, `O=C(COc1ccc(Cl)c(F)c1)NC1CCN(C[C@@H](O)COc2ccc(Cl)c(F)c2)CC1` (single isomer, unassigned) [Compound 27, (+)-2-(4-chloro-3-fluorophenoxy)-N-(1-(3-(4-chloro-3-fluorophenoxy)-2-hydroxypropyl)piperidin-4-yl)acetamide] came in with an inhibition at 0.1 µM of 54% and an inhibition at 1 µM of 73%.

In the assay on ATF4, `O=C(COc1ccc(Cl)cc1)N[C@H]1CC[C@H](NC(=O)C(O)COc2ccc(Cl)cc2)CC1` (stereo partly drawn) [Compound 8, trans-3-(4-chlorophenoxy)-N-(4-(2-(4-chlorophenoxy)acetamido)cyclohexyl)-2-hydroxypropanamide] displayed an inhibition at 0.1 µM of 0% and an inhibition at 1 µM of 0%.

Take `O=C(COc1ccc(Cl)c(F)c1)N1CCC(NCC(O)COc2ccc(Cl)c(F)c2)CC1` (centres unmarked) [Compound 14, 2-(4-chloro-3-fluorophenoxy)-1-(4-((3-(4-chloro-3-fluorophenoxy)-2-hydroxypropyl)amino)piperidin-1-yl)ethan-1-one]: in the assay on ATF4, the inhibition at 0.1 µM turned out to be 0% and at 1 µM the inhibition was 0%.

These data come from patent US11230542B2, “Inhibitors of integrated stress response pathway” (Praxis Biotech LLC, priority 2017, dated 2022).
